Measurements published in publication PMC7279038, “Antioxidant and Neuroprotective Effects Induced by Cannabidiol and Cannabigerol in Rat CTX-TNA2 Astrocytes and Isolated Cortexes” (International Journal of Molecular Sciences, 2020).

What was measured:
Settings in all cases: mean ± S.D., n = 3
[1] = DPPH scavenging ability test
Experimental: For the 1,1-diphenyl-2-picrylhydrazyl (DPPH) radical scavenging assay, sample solution was added to 4 mL of a 0.004% methanol solution of DPPH. The sample absorbance was read at 517 nm after a 30 min incubation at room temperature in the dark. DPPH radical scavenging activity was expressed as IC50 values.

[2] = ABTS scavenging ability test
Experimental: For the 2,2′-azino-bis(3-ethylbenzothiazoline) 6-sulfonic acid (ABTS) radical scavenging assay, ABTS+ was produced directly by reacting 7 mM ABTS solution with 2.45 mM potassium persulfate and allowing the mixture to stand for […] in the dark at room temperature. Prior to beginning the assay, ABTS solution was diluted with methanol to an absorbance of 0.700 ± 0.02 at 734 nm. Sample solution was added to ABTS solution (2 mL) and mixed. The sample absorbance was read at 734 nm after a 30 min incubation at room temperature. The ABTS radical scavenging activity was expressed as IC50 values.

[3] = Ferric reducing antioxidant power (FRAP)
Experimental: For the ferric reducing antioxidant power (FRAP) activity assay, sample solution was added to premixed FRAP reagent (2 mL) containing acetate buffer (0.3 M, pH 3.6), 2,4,6-tris(2-pyridyl)-S-triazine (TPTZ) (10 mM) in 40 mM HCl and ferric chloride (20 mM) in a ratio of 10:1:1 (v/v/v). Then, the sample absorbance was read at 593 nm after a 30 min incubation at room temperature. FRAP activity was expressed as IC50 values.

[4] = Cupric reducing antioxidant capacity (CUPRAC)
Experimental: For the cupric ion reducing activity (CUPRAC) activity assay, sample solution was added to premixed reaction mixture containing CuCl2 (1 mL, 10 mM), neocuproine (1 mL, 7.5 mM) and NH4Ac buffer (1 mL, 1 M, pH 7.0). Similarly, a blank was prepared by adding sample solution (0.5 mL) to premixed reaction mixture […] without CuCl2. Then, the sample and blank absorbances were read at 450 nm after a 30 min incubation at room temperature. The absorbance of the blank was subtracted from that of the sample. CUPRAC activity was expressed as IC50 values.

## Cc1c(C)c2c(c(C)c1O)CCC(C)(C(=O)O)O2 (stereo not shown) [Trolox]
[1]
  IC50: 210 ± 10 µM
[2]
  IC50: 410 ± 10 µM
[3]
  IC50: 180 ± 10 µM
[4]
  IC50: 500 ± 10 µM
